Reference: patent publication US20030078212A1, “PHARMACEUTICAL COMPOSITIONS CONTAINING POLY(ADP-RIBOSE) GLYCOHYDROLASE INHIBITORS AND METHODS OF USING THE SAME” (priority 1998, published 2003)

Experiments:
[1] = test system: ischemia and reperfusion of the heart; settings: rabbits, cited from earlier work
[2] = test system: cell viability, glucose metabolism, and DNA synthesis; settings: cited from earlier work
[3] = test system: human fibroblast cells lines (W138 or BJ cells); assay: Extending proliferative capacity and lifespan of cells; type: cell-based
Protocol: At the time of subdivision, the media is aspirated, and the cells rinsed with phosphate buffer saline (PBS) and then trypsinized. The cells are counted with a Coulter counter and plated at a density of 10^5 cells per cm^2 in 6-well tissue culture plates in DMEM/199 medium supplemented with 10% bovine calf serum and varying amounts (0.10 μM, and 1 mM: from a 100×stock solution in DMEM/M199 medium) of a PARG inhibitor. This process is repeated every 7 days until the cell appear to stop dividing. The untreated (control) cells reach senescence and stop dividing after about 40 days in culture. […] The cells treated with 1 mM 3-AB will still divide after 60 days in culture.

Colitis = settings: rats; colitis by trinitrobenzene sulfonic acid in 50% ethanol; cited from earlier work
endotoxic shock = settings: cited from earlier work

## Oc1cccc2c(O)nccc12 [1,5-dihydroxyisoquinoline]
[1]; 1 mg/kg
  reduction in infarct size: 38-48%

## NC(=O)c1cccc(N)c1 [3-aminobenzamide]
[2]
  additional metabolic effects (side effects): affect cell viability, glucose metabolism, and DNA synthesis
[3]; 10 μM
  effect on lifespan of the cells: little or no effect
[3]; 100 μM
  effect on lifespan of the cells: lengthen the lifespan of the cells
[3]; 1 mM
  effect on lifespan and proliferative capacity of the cells: dramatically increases the lifespan and proliferative capacity of the cells
[3]; 1 mM, untreated cells stop dividing after about 40 days
  time in culture at which cells still divide: > 60 days
[1]; single injection 10 mg/kg, one minute before occlusion or one minute before reperfusion
  reduction in infarct size in the heart: 32-42%
Colitis
  inflammatory response, morphology and energetic status of the distal colon: reduced the inflammatory response and restored the morphology and the energetic status of the distal colon

## COc1cc(C(=O)OC[C@H]2OC(OC(=O)c3cc(OC)c(OC)c(OC)c3)[C@H](OC(=O)c3cc(OC)c(OC)c(OC)c3)[C@@H](OC(=O)c3cc(OC)c(OC)c(OC)c3)[C@@H]2OC(=O)c2cc(OC)c(OC)c(OC)c2)cc(OC)c1OC (stereo partly drawn) [Example 4, 1,2,3,4,6-Penta-O-(3,4,5-Trimethoxybenzoyl)-D-Glucopyranose]
other
  melting point: 85 to 90 °C

## NC(=O)c1ccccc1 [benzamide]
[2]
  additional metabolic effects (side effects): affect cell viability, glucose metabolism, and DNA synthesis

## NC(=O)c1cccnc1 [nicotinamide]
Endotoxic shock
  delayed, NO-mediated vascular failure: protects against delayed, NO-mediated vascular failure in endotoxic shock
